Experimental data as given in patent publication US20090029981A1, “SUBSTITUTED 4-PHENYLPIPERIDINES” (priority 2006, published 2009).

Target: T1, renin (Homo sapiens, UniProt P00797)
T1 construct: This test measures the formation of angiotensin I in human plasma; from tissue; host or cells: human plasma
T1 sequence (P00797 67-406): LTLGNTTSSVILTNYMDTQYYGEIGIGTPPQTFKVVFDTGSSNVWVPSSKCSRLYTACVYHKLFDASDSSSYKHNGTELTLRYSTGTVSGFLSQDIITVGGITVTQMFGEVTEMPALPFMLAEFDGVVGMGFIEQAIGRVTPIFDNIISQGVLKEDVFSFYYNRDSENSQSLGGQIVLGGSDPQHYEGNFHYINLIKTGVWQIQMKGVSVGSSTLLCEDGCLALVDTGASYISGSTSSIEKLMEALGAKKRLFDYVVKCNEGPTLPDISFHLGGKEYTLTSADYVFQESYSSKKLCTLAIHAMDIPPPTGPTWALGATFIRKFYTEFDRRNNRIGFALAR
Assay: Formation of angiotensin I in human plasma (in vitro test of Nussberger et al.), radio-immunoassay
Type: biochemical
Details: one range stated for the listed examples together, about, read-out: IC50, concentration of the inhibitor which reduces the formation of angiotensin I by 50%
From the text: The compounds of the formula (I) or (IA), and their pharmaceutically acceptable salts have an inhibitory effect on the natural enzyme renin. The latter passes from the kidneys into the blood and there brings about the cleavage of angiotensinogen to form the decapeptide angiotensin I which is then cleaved in the lung, the kidneys and other organs to the octa-peptide angiotensin II. Angiotensin II raises the blood pressure both directly by arterial constriction, and indirectly by releasing the hormone aldosterone, which retains sodium ions, from the adrenals, which is associated with an increase in the extracellular fluid volume. This increase is attributable to the effect of angiotensin II itself or of the heptapeptide angiotensin III formed therefrom as cleavage product. Inhibitors of the enzymatic activity of renin bring about a reduction in the formation of angiotensin I and, as a consequence thereof, the formation of a smaller amount of angiotensin II. The reduced concentration of this active peptide hormone is the direct cause of the blood pressure-lowering effect of renin inhibitors.
The effect of renin inhibitors is detected inter alia experimentally by means of in vitro tests where the reduction in the formation of angiotensin I is measured in various systems (human plasma, purified human renin together with synthetic or natural renin substrate). The following in vitro test of Nussberger et al. (1987) J. Cardiovascular Pharmacol., Vol. 9, pp. 39-44, is used inter alia. This test measures the formation of angiotensin I in human plasma. The amount of angiotensin I formed is determined in a subsequent radio-immunoassay. The effect of inhibitors on the formation of angiotensin I is tested in this system by adding various concentrations of these substances. The IC50 is defined as the concentration of the particular inhibitor which reduces the formation of angiotensin I by 50%. The compounds of the present invention show inhibitory effects in the in vitro systems at minimal concentrations of about 10^−6 to about 10^−10 mol/l.

Row | Compound | IC50 [nM]
1 | COCCCN1CCOc2ccc(CO[C@H]3CNC[C@@H](CNC(C)=O)[C@@H]3c3ccc(OC)cc3)cc21 [Example 91, N-{(3S,4R,5R)-4-(4-Methoxyphenyl)-5-[4-(3-methoxypropyl)-3,4-dihydro-2H-benzo[1,4]oxazin-6-ylmethoxy]piperidin-3-ylmethyl}acetamide] | 3.8 to 814
2 | COCCCN1CCOc2ccc(CO[C@H]3CNC[C@@H](OC[C@H](O)COC)[C@@H]3c3ccc(C#N)cc3)cc21 [Example 73, 4-{(3S,4R,5R)-3((R)-2-Hydroxy-3-methoxypropoxy)-5-[4-(3-methoxypropyl)-3,4-dihydro-2H-benzo[1,4]oxazin-6-ylmethoxy]piperidin-4-yl}benzonitrile] | 3.8 to 814
3 | COCCCSc1ccc([C@@H]2[C@@H](OCc3ccc4c(c3)N(CCCOC)CCO4)CNC[C@H]2OC[C@H](O)COC)cc1 [Example 71, (R)-1-Methoxy-3-{(3S,4R,5R)-5-[4-(3-methoxypropyl)-3,4-dihydro-2H-benzo[1,4]oxazin-6-ylmethoxy]-4-[4-(3-methoxypropylsulfanyl)phenyl]piperidin-3-yloxy}propan-2-ol] | 3.8 to 814
4 | C#CCO[C@@H]1CNC[C@H](OCc2ccc3c(c2)N(CCCOC)CCO3)C1c1ccc(OC)cc1 (stereo in doubt) [Example 5, 6-[(3R,4R,5S)-4-(4-Methoxyphenyl)-5-prop-2-ynyloxypiperidin-3-yloxymethyl]-4-(3-methoxy-propyl)-3,4-dihydro-2H-benzo[1,4]oxazine] | 3.8 to 814
5 | COCCCN1CCOc2ccc(CO[C@H]3CNC[C@@H](OC[C@H](O)COC)[C@@H]3c3ccc(SCCOC)cc3)cc21 [Example 70, (R)-1-Methoxy-3-{(3S,4R,5R)-4-[4-(2-methoxyethylsulfanyl)phenyl]-5-[4-(3-methoxy-propyl)-3,4-dihydro-2H-benzo[1,4]oxazin-6-ylmethoxy]piperidin-3-yloxy}propan-2-ol] | 3.8 to 814
6 | COCCCN1CCOc2ccc(CO[C@H]3CNC[C@@H](OCC#N)[C@@H]3c3ccc(OC)cc3)cc21 [Example 1, {(3S,4R,5R)-4-(4-Methoxyphenyl)-5-[4-(3-methoxypropyl)-3,4-dihydro-2H-benzo[1,4]oxazin-6-ylmethoxy]piperidin-3-yloxyl}acetonitrile] | 3.8 to 814
7 | COCCCN1CCOc2ccc(CO[C@H]3CNC[C@@H](OCC(=O)N4[C@H](C)COC[C@@H]4C)[C@@H]3c3ccc(OC)cc3)cc21 [Example 61, 1-((3S,5R)-3,5-Dimethylmorpholin-4-yl)-2-{(3S,4R,5R)-4-(4-methoxyphenyl)-5-[4-(3-methoxypropyl)-3,4-dihydro-2H-benzo[1,4]oxazin-6-ylmethoxy]piperidin-3-yloxy}-ethanone] | 3.8 to 814
8 | COCCCN1CCOc2ccc(CO[C@H]3CNC[C@@H](OC[C@H](O)COC)[C@@H]3c3ccc(OC)cc3)cc21 [Example 2, (R)-1-Methoxy-3-{(3S,4R,5R)-4-(4-methoxyphenyl)-5-[4-(3-methoxypropyl)-3,4-dihydro-2H-benzo[1,4]oxazin-6-ylmethoxy]piperidin-3-yloxy}propan-2-ol] | 3.8 to 814
9 | COCCCN1CCOc2ccc(CO[C@H]3CNC[C@@H](OC[C@@H](O)COC)[C@@H]3c3ccc(C#N)cc3)cc21 [Example 74, 4-{(3S,4R,5R)-3((S)-2-Hydroxy-3-methoxypropoxy)-5-[4-(3-methoxypropyl)-3,4-dihydro-2H-benzo[1,4]oxazin-6-ylmethoxy]piperidin-4-yl}-benzonitrile] | 3.8 to 814
10 | COCCCN1CCOc2ccc(CO[C@H]3CNC[C@@H](CNC(C)C)[C@@H]3c3ccc(OC)cc3)cc21 [Example 87, Isopropyl-{(3S,4R,5R)-4-(4-methoxyphenyl)-5-[4-(3-methoxypropyl)-3,4-dihydro-2H-benzo[1,4]oxazin-6-ylmethoxy]piperidin-3-ylmethyl}amine] | 3.8 to 814
11 | COCCCN1CCOc2ccc(CO[C@H]3CNC[C@@H](OCC(C)(C)OC)[C@@H]3c3ccc(OC)cc3)cc21 [Example 8, 6-[(3R,4R,5S)-5-(2-Methoxy-2-methylpropoxy)-4-(4-methoxyphenyl)piperidin-3-yloxymethyl]-4-(3-methoxypropyl)-3,4-dihydro-2H-benzo[1,4]oxazine] | 3.8 to 814
12 | COCCCN1CCOc2ccc(CO[C@H]3CNC[C@@H](OCCN4[C@H](C)COC[C@@H]4C)[C@@H]3c3ccc(OC)cc3)cc21 [Example 68, 6-[(3R,4R,5S)-5-[2-((3R,5S)-3,5-Dimethylmorpholin-4-yl)ethoxy]-4-(4-methoxy-phenyl)piperidin-3-yloxymethyl]-4-(3-methoxypropyl)-3,4-dihydro-2H-benzo[1,4]oxazine] | 3.8 to 814
